Test results: patent US5980913A, “Peptides having immunomodulatory activity” (Biochem Pharma, Inc., priority 1994, dated 1999)
Where a SMILES comes first, the peptide text is derived from it. [ ]: non-standard residue; d: D form.

Legend:
[1] = tested on: blood cell subsets (cell surface antigens); experiment: In vivo/ex vivo immunophenotyping in the blood, mice treated 4 consecutive days, blood taken on day 5; parameters: species or system C57BL/6 mice
Description: C57BL.backslash.6 mice are treated with 0, 50, 100, 200, and 300 mg/kg of drug (in saline) for 4 consecutive days. Blood is taken by cardiac puncture on day 5, and the lymphocytes are isolated from spleen in the following manner:
1. Immunophenotyping (blood and spleen)
Cell immunophenotyping is performed on blood and spleen. The following cell surface antigens are analyzed:
CD4 (T helper/inducer, binds class II-restricted T cells);
CD8 (cytotoxic T cells, CTL adhesion);
MAC-1 (monocyte/macrophage);
NK (natural killer cells);
CD45 (all leukocytes, protein tyrosine phosphatase).

[2] = Stability in Human Whole Blood at 37° C., HPLC; type: in vitro ADME; parameters: half-life: dose or concentration left out as unconfirmed; conditions: for HPLC AREA: human whole blood 37° C.
Description: The procedures are the same as example 5 with the exceptions that human whole blood was substituted for rat whole blood, and that in Step 2, (blood incubation) aliquotes were taken at the following times: […]

## NCCCC[C@@H](N)C(=O)N[C@@H](CC(N)=O)C(=O)N1CCC[C@H]1C(=O)N[C@@H](Cc1ccc(O)cc1)C(=O)O [PEPTIDE #5, H-(D-Lys)-Asn-Pro-Tyr-OH] (H-[dK]NPY-OH)
[1]; 100 mg/kg, second assay
  CD4- CD8- cell subset, relative percentage, MEAN: 67.83
  CD4- CD11b+ cell subset, relative percentage, MEAN: 10.28
  CD4- CD11b- cell subset, relative percentage, MEAN: 67.65
  CD45+ CD4+ cell subset, relative percentage, MEAN: 22.70
  CD45+ CD4- cell subset, relative percentage, MEAN: 68.45
  CD45+ CD8+ cell subset, relative percentage, MEAN: 7.05
  CD45+ CD8- cell subset, relative percentage, MEAN: 85.00
  CD45- CD4+ cell subset, relative percentage, MEAN: 2.23
  CD45- CD4- cell subset, relative percentage, MEAN: 6.63
  CD45- CD8+ cell subset, relative percentage, MEAN: 0.10
  CD45- CD8- cell subset, relative percentage, MEAN: 7.83
  Ly5(B) cell subset, relative percentage, MEAN: 56.10
  NK+ CD3+ cell subset, relative percentage, MEAN: 4.68
  NK+ CD3- cell subset, relative percentage, MEAN: 7.58
  NK- CD3+ cell subset, relative percentage, MEAN: 36.30
  NK- CD3- cell subset, relative percentage, MEAN: 51.43
  TCR(T) cell subset, relative percentage, MEAN: 37.50
[1]; 200 mg/kg, first assay
  CD4+ CD8+ cell subset, relative percentage, MEAN: 1.90
  CD4+ CD8- cell subset, relative percentage, MEAN: 19.00
  CD4+ CD11b+ cell subset, relative percentage, MEAN: 0.85
  CD4+ CD11b- cell subset, relative percentage, MEAN: 18.98
  CD4- CD8+ cell subset, relative percentage, MEAN: 4.68
  CD4- CD8- cell subset, relative percentage, MEAN: 74.40
  CD4- CD11b+ cell subset, relative percentage, MEAN: 7.78
  CD4- CD11b- cell subset, relative percentage, MEAN: 72.45
  CD45+ CD4+ cell subset, relative percentage, MEAN: 17.45
  CD45+ CD4- cell subset, relative percentage, MEAN: 57.70
  CD45+ CD8+ cell subset, relative percentage, MEAN: 6.15
  CD45+ CD8- cell subset, relative percentage, MEAN: 64.30
  CD45- CD4+ cell subset, relative percentage, MEAN: 3.48
  CD45- CD4- cell subset, relative percentage, MEAN: 21.35
  CD45- CD8- cell subset, relative percentage, MEAN: 29.08
  CD45- CDE8+ cell subset, relative percentage, MEAN: 0.48
  Ly5(B) cell subset, relative percentage, MEAN: 65.60
  NK+ CD3+ cell subset, relative percentage, MEAN: 1.93
  NK+ CD3- cell subset, relative percentage, MEAN: 5.73
  NK- CD3+ cell subset, relative percentage, MEAN: 33.03
  NK- CD3- cell subset, relative percentage, MEAN: 59.33
  TCR(T) cell subset, relative percentage, MEAN: 32.18
[1]; 200 mg/kg, second assay
  CD4+ CD8+ cell subset, relative percentage, MEAN: 0.30
  CD4+ CD8- cell subset, relative percentage, MEAN: 23.13
  CD4+ CD11b+ cell subset, relative percentage, MEAN: 0.13
  CD4+ CD11b- cell subset, relative percentage, MEAN: 15.40
  CD4- CD8+ cell subset, relative percentage, MEAN: 7.58
  CD4- CD8- cell subset, relative percentage, MEAN: 69.03
  CD4- CD11b+ cell subset, relative percentage, MEAN: 5.20
  CD4- CD11b- cell subset, relative percentage, MEAN: 79.30
  CD45+ CD4+ cell subset, relative percentage, MEAN: 20.85
  CD45+ CD4- cell subset, relative percentage, MEAN: 71.95
  CD45+ CD8+ cell subset, relative percentage, MEAN: 7.83
  CD45+ CD8- cell subset, relative percentage, MEAN: 85.60
  CD45- CD4+ cell subset, relative percentage, MEAN: 2.23
  CD45- CD4- cell subset, relative percentage, MEAN: 5.00
  CD45- CD8+ cell subset, relative percentage, MEAN: 0.05
  CD45- CD8- cell subset, relative percentage, MEAN: 6.53
  Ly5(B) cell subset, relative percentage, MEAN: 65.63
  NK+ CD3+ cell subset, relative percentage, MEAN: 2.90
  NK+ CD3- cell subset, relative percentage, MEAN: 6.83
  NK- CD3+ cell subset, relative percentage, MEAN: 32.30
  NK- CD3- cell subset, relative percentage, MEAN: 58.03
  TCR(T) cell subset, relative percentage, MEAN: 35.80
[1]; all tested doses
  CD4- CD8-, figure printed with the significant increase of B cells: 73%
  Ly5, figure printed with the significant increase of B cells: 80%
  change of B cells (in words): significant increase
[2]; 0 min
  HPLC AREA: 2857082.5
[2]; 15 min
  HPLC AREA: 3066465
[2]; 30 min
  HPLC AREA: 3017509.5
[2]; 60 min
  HPLC AREA: 3135696.5
[2]; 90 min
  HPLC AREA: 3005211
[2]; 120 min
  HPLC AREA: 3476665.5
[2]; 150 min
  HPLC AREA: 3063052
[2]; 180 min
  HPLC AREA: 3108157
[2]; 210 min
  HPLC AREA: 3181899
[2]; human, human whole blood, 37° C.
  half-life: > 3.5 h
